Reference: patent US11008340B2, “Modulators of ROR-gamma” (Vitae Pharmaceuticals, LLC, priority 2015, dated 2021)
Where two headings read alike, the source gives them in different places.

What was measured:
[1] = target: T1, full-length RORγt in Jurkat cells (Homo sapiens, UniProt P51449); assay: RORγt 5×RORE Assay in Jurkat Cells (Assay 2); type: cell-based; details: 5×RORE luciferase reporter
T1 construct: transcriptional activity of the full-length RORγt in Jurkat cells; host or cells: Jurkat cells (ATCC TIB-152)
T1 sequence (P51449 1-497 isoform P51449-2): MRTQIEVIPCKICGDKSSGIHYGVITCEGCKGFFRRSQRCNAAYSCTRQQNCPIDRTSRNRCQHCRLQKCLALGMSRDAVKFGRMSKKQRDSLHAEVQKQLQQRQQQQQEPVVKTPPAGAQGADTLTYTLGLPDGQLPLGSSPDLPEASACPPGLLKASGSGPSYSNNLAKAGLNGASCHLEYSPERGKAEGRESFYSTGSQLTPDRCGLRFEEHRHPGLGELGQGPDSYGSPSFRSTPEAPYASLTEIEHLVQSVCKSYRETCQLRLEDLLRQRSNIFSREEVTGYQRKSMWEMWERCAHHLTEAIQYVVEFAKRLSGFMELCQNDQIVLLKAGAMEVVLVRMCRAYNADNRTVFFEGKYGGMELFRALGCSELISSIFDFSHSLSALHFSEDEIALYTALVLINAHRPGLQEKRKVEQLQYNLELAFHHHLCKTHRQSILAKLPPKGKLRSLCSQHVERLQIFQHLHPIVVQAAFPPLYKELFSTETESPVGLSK
Protocol: [formula] RORγt 5×RORE Assay in Jurkat Cells (Assay 2)
Compounds described herein were tested for RORγ inverse agonist activity in a cell-based, transcriptional activity assay. Secreted Nanoluc″ luciferase was used as a reporter for transcriptional activity of the full-length RORγt in Jurkat cells (ATCC, Cat. #TIB-152). A reporter plasmid was constructed by inserting 5 repeats of the ROR Response Element (RORE) […] (SEQ ID NO: 1) into a commercially available promoterless plasmid pNL1.3[secNluc] (Promega, Cat. #N1021) using KpnI and HindIII restriction sites. The expression plasmid for RORγt was purchased (Geneocopoeia, Cat. #EX-T6988-M02). Jurkat cells (30 million cells) were transfected with 11 μg of EX-T6988-MO2 and 26 μg of the reporter plasmid in OptiMEM® media using Lipofectamine LTX and Plus™ reagents (Life Technologies, Cat. #15338-100). After 5-6 hrs of incubation at 37° C./5% CO2, the cells were collected, resuspended in phenol-red free RPMI media containing 10% (v/v) delipidated FBS (Hyclone, Cat. #SH30855.03) and dispensed into 96-well clear bottom tissue culture plates (CoStar, Cat. #3603), at 80,000 cells per well. Tested compounds were added to the cells in the same media (final concentration of DMSO was 0.1% (v/v)), and the plates were incubated at 37° C./5% CO2 for 16-18 hrs. Luciferase activity in the conditioned supernatants was determined with NanoGlo® assay reagents (Promega, Cat. #N1130).

[2] = target: T2, recombinant RORγ Ligand Binding Domain (LBD) protein (Homo sapiens, UniProt P51449); assay: Radio-Ligand RORγ Binding Assay (Assay 1); details: radio-ligand competition, RORγ LBD, read-out: Avg ROR Bind Ki
T2 construct: 6×His; GST
T2 sequence (P51449 269-508 limits assumed): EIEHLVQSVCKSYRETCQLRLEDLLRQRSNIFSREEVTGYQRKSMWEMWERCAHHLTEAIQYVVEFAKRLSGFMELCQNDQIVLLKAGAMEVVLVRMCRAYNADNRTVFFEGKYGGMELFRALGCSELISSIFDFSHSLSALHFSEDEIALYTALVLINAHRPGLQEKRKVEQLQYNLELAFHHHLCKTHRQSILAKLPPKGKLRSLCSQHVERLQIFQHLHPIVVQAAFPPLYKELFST
Protocol: Radio-Ligand RORγ Binding Assay (Assay 1)
Compounds described herein were tested for ability to bind to RORγ in a cell-free competition assay with commercially available radio-ligand (RL), 25-hydroxy [26,27-^3H]-cholesterol (PerkinElmer, Cat. #NET674250UC), for a ligand binding site on a recombinant RORγ Ligand Binding Domain (LBD) protein expressed as a 6×His-Glutathione-S-Transferase (GST) fusion. The assay was performed in 96-well SPA plates (PerkinElmer, Cat. #1450-401) in 50 mM HEPES buffer, pH 7.4, containing 150 mM NaCl, 5 mM MgCl2, 10% (v/v) glycerol, 2 mM CHAPS, 0.5 mM 3-octylglucopyranoside and 5 mM DTT. Tested compounds were dissolved in DMSO, and semi-log (3.162×) serial dilutions of the compounds were prepared in the same solvent. Two μL of the DMSO solutions were mixed with 28 μL of 8.6 nM 25-hydroxy [26,27-^3H]-cholesterol and 50 μL of 24 nM RORγ LBD. The plate was shaken at 700 rpm for 20 min and incubated for 10 min at rt, after which 40 μL of poly-Lys YSi SPA beads (PerkinElmer, Cat. #RPNQ0010) were added to achieve 50 μg of the beads per well. The plate was incubated on an orbital shaker for 20 min and then for 10 min without agitation at rt. SPA signal for tritium beta radiation was registered on PerkinElmer Microbeta plate reader. […] The percent inhibition vs. concentration data were fit into a four-parameter model, and IC50 values were calculated from the fit as the concentrations corresponding to the inflection points on the dose-response curves. Inhibitory constants (Ki) were calculated using the following equation, where [RL] is the concentration in the assay and KD is a dissociation constant of 25-hydroxy [26,27-^3H]-cholesterol: […]

[3] = Table 20, read-out: Avg ROR γt/5x IC5
[4] = 25-hydroxy [26,27-3H]-cholesterol

Compound	IC50 ([1]; head without unit (Tables 15, 17), read-out: Avg ROR γt/5x IC50) [nM]	Ki ([2]; head without unit (Tables 15, 17)) [nM]	IC50 [1, 3] [nM]	Ki [2, 4] [nM]	IC50 ([1]; read-out: Avg ROR γt/5x IC50) [nM]
CCS(=O)(=O)c1ccc(CNC(=O)c2cnc3c(c2)CCN(Cc2ccc(C#N)cc2)C3C(C)C)cc1 (single isomer, unassigned) [Hy2B-7.1]	100 to 1000	< 100	–	–	–
CC[C@@H]1CN(c2ncc(C(F)(F)F)cc2C)Cc2cc(C(=O)NCc3ccc(S(=O)(=O)CC)cc3)ccc21 (single isomer, unassigned) [Hy7-13.1]	–	–	< 100	< 100	–
CC[C@H]1CN(c2ncc(C(F)(F)F)cn2)Cc2cc(C(=O)NCc3ccc(S(=O)(=O)CC)cc3)ccc21 (single isomer, unassigned) [Hy7-9.2]	–	–	> 1000	< 100	–
CC[C@@H]1CN(c2ncc(Cl)cn2)Cc2cc(C(=O)N[C@@H](CO)c3ccc(S(=O)(=O)CC)cc3)ccc21 (single isomer, unassigned) [Hy7-6.1]	–	–	> 1000	< 100	–
CCc1cc2cc(C(=O)NCc3ccc(S(=O)(=O)CC)cc3)ccc2c(OC[C@H]2CC[C@H](C(F)(F)F)CC2)n1 [Hy1A-20, 3-ethyl-N-(4-(ethylsulfonyl)benzyl)-1-(((1r,4r)-4-(trifluoromethyl)cyclohexyl)methoxy)isoquinoline-6-carboxamide]	–	–	–	< 100	< 100
CCS(=O)(=O)c1ccc(CNC(=O)c2ccc3c(c2)CCN(Cc2ccc(Cl)cc2)C3C)cc1 (racemic) [Hy2A-11, 2-(4-chlorobenzyl)-N-(4-(ethylsulfonyl)benzyl)-1-methyl-1,2,3,4-tetrahydroisoquinoline-6-carboxamide]	–	–	–	< 100	100 to 1000
CC[C@H]1CN(c2ncc(C(F)(F)F)cn2)Cc2cc(C(=O)NCc3ccc(S(=O)(=O)CC)cn3)ccc21 (single isomer, unassigned) [Hy7-10.1]	–	–	< 100	< 100	–
CCS(=O)(=O)c1ccc(CNC(=O)c2ccc3c(OC4CCC(C(F)(F)F)CC4)nccc3c2)cc1 (single isomer, unassigned) [Hy1A-3.1, N-(4-(ethylsulfonyl)benzyl)-1-(((1s,4s)-4-(trifluoromethyl)cyclohexyl)oxy)isoquinoline-6-carboxamide]	–	–	–	< 100	> 1000
CCS(=O)(=O)c1ccc([C@H](CO)NC(=O)c2ccc3c(OCc4ccc(F)cc4)nc(C)cc3c2)cc1 [Hy1A-13, (R)-N-(1-(4-(ethylsulfonyl)phenyl)-2-hydroxyethyl)-1-((4-fluorobenzyl)oxy)-3-methylisoquinoline-6-carboxamide]	–	–	–	< 100	100 to 1000
Mixture of N-((R)-1-(4-(ethylsulfonyl)phenyl)-2-hydroxyethyl)-3-methyl-1-(((3S,6S)-6-(trifluoromethyl)tetrahydro-2H-pyran-3-yl)methoxy)isoquinoline-6-carboxamide and N-((R)-1-(4-(ethylsulfonyl)phenyl)-2-hydroxyethyl)-3-methyl-1-(((3R,6R)-6-(trifluoromethyl)tetrahydro-2H-pyran-3-yl)methoxy)isoquinoline-6-carboxamide [Hy1A-18.3]	–	–	–	< 100	> 1000
CCS(=O)(=O)c1ccc(CNC(=O)c2cnc3c(C4CC4)n(C[C@H]4CC[C@H](C(F)(F)F)CC4)nc3c2)cc1 [Hy3B-2, 3-cyclopropyl-N-(4-(ethylsulfonyl)benzyl)-2-(((1r,4r)-4-(trifluoromethyl)cyclohexyl)methyl)-2H-pyrazolo[4,3-b]pyridine-6-carboxamide]	–	–	–	< 100	< 100
CCS(=O)(=O)c1ccc(CNC(=O)c2ccc3c(c2)CCN(c2ncc(C(F)(F)F)cn2)C3C(C)C)cc1 (centres unmarked) [Hy2A-2, N-(4-(ethylsulfonyl)benzyl)-1-isopropyl-2-(5-(trifluoromethyl)pyrimidin-2-yl)-1,2,3,4-tetrahydroisoquinoline-6-carboxamide]	–	–	–	100 to 1000	> 1000
CCS(=O)(=O)c1ccc(CNC(=O)c2ccc3c(OC[C@H]4CC[C@H](C(F)(F)F)CC4)nc(Cl)cc3c2)cc1 [Hy1A-9, 3-chloro-N-(4-(ethylsulfonyl)benzyl)-1-(((1r,4r)-4-(trifluoromethyl)cyclohexyl)methoxy)isoquinoline-6-carboxamide]	–	–	–	< 100	< 100
CCS(=O)(=O)c1ccc([C@H](CO)NC(=O)c2ccc3c(Oc4ccc(OC(F)(F)F)cc4)nc(C)cc3c2)cc1 [Hy1A-15, (R)-N-(1-(4-(ethylsulfonyl)phenyl)-2-hydroxyethyl)-3-methyl-1-(4-(trifluoromethoxy)phenoxy)isoquinoline-6-carboxamide]	–	–	–	< 100	100 to 1000
CCS(=O)(=O)c1ccc(CNC(=O)c2ccc3c(c2)C(C)(C)CN(Cc2ccc(C#N)cc2)C3C(C)C)cc1 (single isomer, unassigned) [Hy2A-23.1]	–	–	–	< 100	< 100

The next lines start with the values.

IC50 ([1]; head without unit (Tables 15, 17), read-out: Avg ROR γt/5x IC50) [nM]	Ki ([2]; head without unit (Tables 15, 17)) [nM]	IC50 [1, 3] [nM]	Ki [2, 4] [nM]	IC50 ([1]; read-out: Avg ROR γt/5x IC50) [nM]	Compound
–	–	> 1000	< 100	–	CCS(=O)(=O)c1ccc(CNC(=O)c2ccc3c(c2)CN(c2ncc(C(F)(F)F)cn2)C[C@@H]3C(F)(F)F)cc1 (single isomer, unassigned) [Hy7-36.2]
–	–	100 to 1000	< 100	–	CCOC(=O)c1cnc(N2Cc3cc(C(=O)NCc4ccc(S(=O)(=O)CC)cc4)ccc3[C@@H](C(C)C)C2)nc1C(F)(F)F (single isomer, unassigned) [Hy7-26.2]
–	–	< 100	< 100	–	CC[C@@H]1CN(c2ncc(C(F)(F)F)cc2C)Cc2cc(C(=O)N[C@@H](CO)c3ccc(S(=O)(=O)CC)cc3)ccc21 (single isomer, unassigned) [Hy7-22.1]
–	–	> 1000	< 100	–	CCC1CN(C2CCC(C(F)(F)F)CC2)Cc2cc(C(=O)NC(CO)c3ccc(S(=O)(=O)CC)cc3)ccc21 (single isomer, unassigned) [Hy7-35.2]
–	–	> 1000	< 100	–	CCS(=O)(=O)c1ccc(CNC(=O)c2ccc3c(c2)CN(Cc2ccc(F)cc2)C[C@H]3C(C)C)cc1 (single isomer, unassigned) [Hy7-27.1]
–	–	> 1000	< 100	–	CC[C@@H]1CN(c2ncc(C(F)(F)F)cn2)Cc2cc(C(=O)N[C@H](CO)c3ccc(S(=O)(=O)CC)cn3)ccc21 (single isomer, unassigned) [Hy7-18.2]
–	–	100 to 1000	< 100	–	CC[C@H]1CN(c2ncc(-c3ncco3)cn2)Cc2cc(C(=O)N[C@@H](CO)c3ccc(S(=O)(=O)CC)cc3)ccc21 (single isomer, unassigned) [Hy7-33.2]
